These results are taken from patent publication US5075308A, “Method for treating urinary obstruction” (Hitachi Chemical Co., Ltd., priority 1989, dated 1991).

Experiment [1] concerns α1-adrenoceptor (thoracic aorta). The experiment is described as follows: α1-adrenoceptor-blocking activity in rabbit thoracic aorta strips (noradrenaline contraction, Schild plot). The note with it: rabbit thoracic aorta helical strips, endothelium denuded; antagonism of noradrenaline contraction; mean (± standard deviation). The method, then: (§1) Male albino rabbits weighing 2.2-2.5 kg were intravenously given pentobarbital (Nembutal® manufactured by Abbott) at a dose of 35 mg/kg body weight and sacrificed by exsanguination. The thoracic aorta and urinary bladder were rapidly excised and placed in modified Krebs solution. After removal of fat and unnecessary connective tissue, helical strips (3×15 mm in size) of the thoracic aorta and longitudinal strips (3×15 mm in size) of trigonum vesicae were prepared and used as specimen. The helical strips were carefully denuded of endothelium attached thereto in order to avoid any effect of the endothelium-derived vascular relaxing factors.
(§2) The preparations were vertically mounted in an organ bath filled with 20 ml of the modified Krebs solution (aerated with a gas mixture of 95 vol % of oxgen and 5 vol % of carbon dioxide and kept at 37° C.). The other end of each strip was attached to a transducer for tension measurement (the model TB-6llT manufactured by Nihon Kohden Kogyo K.K.). Changes in tension were recorded on a pen-writing oscillograph (the model Wi-68lG manufactured by Nihon Kohden Kogyo K.K.). Composition of the modified Krebs solution used herein was as follows: NaCl 115.0, KCl 4.7, MgSO4.7H2 O 1.2, CaCl2.2H2 O 2.5, KH2 PO4 1.2, NaHCO3 25.0 and glucose 10.0 (concentration in mM). The solution contained 10^-6 M propranolol, a […] (manufactured by Sigma). The loading tension was adjusted to attain a weight of 2 g for aorta and a weight of 1 g for trigone. The strips were allowed to equilibrate for at least 60 min. before initiation of the experiment, and during this period the modified Krebs solution in the organ bath was replaced every 20 min.
(§3) First, noradrenaline (manufactured by Sigma, 10^-6 -10^-4 M) was cumulatively added to each specimen to prepare a concentration-response curve to noradrenaline (to determine the 50% effective concentration ED50). […] The results were analyzed by Schild plotting to determine pA2 ([…] of concentration of the blocking agent necessary for parallel shift of the 50% contraction caused by noradrenaline to a concentration two fold as high).

Experiment [2] concerns the target T1, α1-adrenoceptor (trigonum vesicae) (Oryctolagus cuniculus, UniProt O02824).
T1 construct: longitudinal strips (3×15 mm in size) of trigonum vesicae; from tissue; host or cells: rabbit urinary bladder, longitudinal strips of trigonum vesicae
T1 sequence (O02824 1-466): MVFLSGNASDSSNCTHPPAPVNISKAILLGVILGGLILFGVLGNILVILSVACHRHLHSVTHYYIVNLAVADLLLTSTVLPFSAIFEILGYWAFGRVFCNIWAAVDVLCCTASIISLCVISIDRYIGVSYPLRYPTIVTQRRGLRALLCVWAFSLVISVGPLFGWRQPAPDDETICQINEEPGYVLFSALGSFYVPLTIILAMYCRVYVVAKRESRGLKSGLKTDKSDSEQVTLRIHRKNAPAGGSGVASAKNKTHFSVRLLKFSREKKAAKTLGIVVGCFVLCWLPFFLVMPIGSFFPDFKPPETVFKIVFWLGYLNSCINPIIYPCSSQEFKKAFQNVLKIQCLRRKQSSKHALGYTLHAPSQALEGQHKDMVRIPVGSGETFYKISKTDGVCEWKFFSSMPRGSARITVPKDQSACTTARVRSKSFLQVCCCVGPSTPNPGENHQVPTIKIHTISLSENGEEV
The experiment is described as follows: α1-adrenoceptor-blocking activity in rabbit trigonum vesicae strips (noradrenaline contraction, Schild plot). The note with it: rabbit trigonum vesicae longitudinal strips; antagonism of noradrenaline contraction; mean (± standard deviation); read-out: pA2, trigonum vesicae (converted). The method, then:
as §1, §2, §3

Experiment [3] concerns α1-adrenoceptor (trigonum vesicae). Described as above. The note with it: for Activity ratio: ratio of pA2 (calculated as concentration) with trigonum vesicae to pA2 with thoracic aorta. The method, then:
as §1, §2, §3

For the compound `COc1ccccc1N1CCN(CCNc2nccc(Cl)n2)CC1` [Compound 5, 2-[2-(4-(2-methoxyphenyl)-l-piperazinyl)ethyl]amino-4-chloropyrimidine], in experiment [1], the “pA2, thoracic aorta” value was 7.83. Besides, the Kb in experiment [2] was 5.25 nM. In addition, the Activity ratio in experiment [3] is 2.82.

On to `CCOC(=O)c1c(C)nc(NCCN2CCN(c3ccccc3OC)CC2)nc1C` [Compound 7, 2-[2-(4-(2-methoxyphenyl)-l-piperazinyl)ethyl]amino-5-ethoxycarbonyl-4,6-dimethylpyrimidine], for which the “pA2, thoracic aorta” value in experiment [1] stood at 7.92. In experiment [2], the Kb is 5.5 nM. In addition, the Activity ratio in experiment [3] was 2.19.

Regarding `CCOC(=O)c1c(C)nc(NCCCN2CCN(c3ccccc3OC)CC2)nc1C` [Compound 4, 2-[3-(4-(2-methoxyphenyl)-l-piperazinyl)propyl]amino-5-ethoxycarbonyl-4,6-dimethylpyrimidine], in experiment [1], the “pA2, thoracic aorta” value was found to be 7.65. Further, the Kb in experiment [2] was 5.25 nM. Also, the Activity ratio in experiment [3] is given as 4.27.

In the case of `COc1ccnc(NCCCCN2CCN(c3ccccc3OC)CC2)n1` [Compound 9, 2-[4-(4-(2-methoxyphenyl)-l-piperazinyl)butyl]amino-4-methoxypyrimidine], the “pA2, thoracic aorta” value in experiment [1] stood at 7.96. For the same compound, the Kb in experiment [2] is 6.17 nM. Further, the Activity ratio in experiment [3] is 1.78.

On to `COc1cc2nc(N3CCN(C(=O)c4ccco4)CC3)nc(N)c2cc1OC` [Prazosin, reference compound], for which the “pA2, thoracic aorta” value in experiment [1] came to 8.55. For the same compound, in experiment [3], the “pA2 comparison trigonum vesicae vs thoracic aorta (in words)” value was “larger pA2 in the thoracic aorta than in the trigonum vesicae”.

On to `CCOC(=O)c1c(C)nc(NCCCCN2CCN(c3ccccc3OC)CC2)nc1C` [Compound 2, 2-[4-(4-(2-methoxyphenyl)-l-piperazinyl)butyl]amino-5-ethoxycarbonyl-4,6-dimethylpyrimidine], for which the “pA2, thoracic aorta” value in experiment [1] turned out to be 7.47. In addition, the Kb in experiment [2] is 5.01 nM. Moreover, the Activity ratio in experiment [3] was 6.76.

Regarding `COc1ccccc1N1CCN(CCNc2ncccn2)CC1` [Compound 6, 2-[2-(4-(2-methoxyphenyl)-l-piperazinyl)ethyl]amino-pyrimidine], the “pA2, thoracic aorta” value in experiment [1] was found to be 7.74. Besides, the Kb in experiment [2] is 7.94 nM. Besides, in experiment [3], the Activity ratio was 2.29.

Turning to `COc1ccccc1N1CCN(CCNc2nc(C)c(C(C)=O)c(C)n2)CC1` [Compound 1, 2-[2-(4-(2-methoxyphenyl)-l-piperazinyl)ethyl]amino-5-acetyl-4,6-dimethylpyrimidine], in experiment [1], the “pA2, thoracic aorta” value is on record as 7.35. Also, the Kb in experiment [2] is 8.51 nM. Further, the Activity ratio in experiment [3] is on record as 5.25.

As to `COc1ccccc1N1CCN(CCNc2nc(C)cc(C)n2)CC1` [Compound 3, 2-[2-(4-(2-methoxyphenyl)-l-piperazinyl)ethyl]amino-4,6-dimethylpyrimidine], in experiment [1], the “pA2, thoracic aorta” value is 7.67. Also, the Kb in experiment [2] is 7.08 nM. Also, in experiment [3], the Activity ratio is 3.02.

On to `COc1ccnc(NCCN2CCN(c3ccccc3OC)CC2)n1` [Compound 8, 2-[2-(4-(2-methoxyphenyl)-l-piperazinyl)ethyl]amino-4-methoxypyrimidine], for which the “pA2, thoracic aorta” value in experiment [1] was 7.92. The Kb in experiment [2] was 6.46 nM. In addition, in experiment [3], the Activity ratio is listed as 1.86.
